Results taken from US9113629B2, “4-amino-6-(4-substituted-phenyl)-picolinates and 6-amino-2-(4-substituted-phenyl)-pyrimidine-4-carboxylates and their use as herbicides” (DOW AGROSCIENCES LLC, priority 2013, dated 2015).
Like-named read-outs stand apart in the source and are kept apart here.

What was measured:
[1] = system: Key Broadleaf Weed and Crop Species; assay: Post-emergent Test II herbicidal activity (Table 5); format: in vivo; conditions: post-emergence, 336 h, 14 days after application; for pest or weed control at 70 g/ha: application rate 70 g ai/ha; for pest or weed control at 140 g/ha: application rate 140 g ai/ha
Summary of the method: (§1)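 Post-emergence foliar spray, 187 L/ha, track sprayer at 43 cm above canopy. Carrier: acetone/water/IPA/DMSO/Atplus 411F/Triton X-155. Plants at 1st–2nd true leaf; subirrigated afterwards; % injury scored visually at 14 d.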

[2] = system: Key Grass and Sedge Weeds as well as Grass Crops; assay: Post-emergent Test II herbicidal activity (Table 6); format: in vivo; conditions: post-emergence, 336 h; for pest or weed control at 70 g/ha: 70 g ai/ha; for pest or weed control at 140 g/ha: 140 g ai/ha
Summary of the method: as §1

[3] = ABUTH: velvetleaf (Abutilon theophrasti), read-out: Visual Growth Reduction (%) 14 Days After Application, ABUTH
[4] = AMARE: redroot pigweed (Amaranthus retroflexus), read-out: Visual Growth Reduction (%) 14 Days After Application, AMARE
[5] = BRSNN: oilseed-rape, canola (Brassica napus), read-out: Visual Growth Reduction (%) 14 Days After Application, BRSNN
[6] = CHEAL: lambsquarters (Chenopodium album), read-out: Visual Growth Reduction (%) 14 Days After Application, CHEAL
[7] = EPHHL: wild poinsettia (Euphorbia heterophylla), read-out: Visual Growth Reduction (%) 14 Days After Application, EPHHL
[8] = HELAN: sunflower (Helianthus annuus), read-out: Visual Growth Reduction (%) 14 Days After Application, HELAN
[9] = VIOTR: wild pansy (Viola tricolor), read-out: Visual Growth Reduction (%) 14 Days After Application, VIOTR
[10] = CYPES: yellow nutsedge (Cyperus esculentus), read-out: Visual Growth Reduction (%) 14 Days After Application, CYPES
[11] = DIGSA: crabgrass (Digitaria sanguinalis), read-out: Visual Growth Reduction (%) 14 Days After Application, DIGSA
[12] = ECHCG: barnyardgrass (Echinochloa crus-galli), read-out: Visual Growth Reduction (%) 14 Days After Application, ECHCG
[13] = ORYSA: rice (Oryza sativa), crop, read-out: Visual Growth Reduction (%) 14 Days After Application, ORYSA
[14] = SETFA: giant foxtail (Setaria faberi), read-out: Visual Growth Reduction (%) 14 Days After Application, SETFA
[15] = SORVU: grain sorghum (Sorghum vulgare), read-out: Visual Growth Reduction (%) 14 Days After Application, SORVU
[16] = TRZSS (wheat, Triticum aestivum), crop, read-out: Visual Growth Reduction (%) 14 Days After Application, TRZSS
[17] = ZEAMX: maize, corn (Zea mays), crop, read-out: Visual Growth Reduction (%) 14 Days After Application, ZEAMX

Structure (SMILES)	pest or weed control at 70 g/ha [1, 3]	pest or weed control at 140 g/ha [1, 3]	pest or weed control at 70 g/ha [1, 4]	pest or weed control at 140 g/ha [1, 4]	pest or weed control at 70 g/ha [1, 5]	pest or weed control at 140 g/ha [1, 5]	pest or weed control at 70 g/ha [1, 6]	pest or weed control at 140 g/ha [1, 6]	pest or weed control at 70 g/ha [1, 7]	pest or weed control at 140 g/ha [1, 7]	pest or weed control at 70 g/ha [1, 8]	pest or weed control at 140 g/ha [1, 8]	pest or weed control at 70 g/ha [1, 9]	pest or weed control at 140 g/ha [1, 9]	pest or weed control at 70 g/ha [2, 10]	pest or weed control at 140 g/ha [2, 10]	pest or weed control at 70 g/ha [2, 11]	pest or weed control at 140 g/ha [2, 11]	pest or weed control at 70 g/ha [2, 12]	pest or weed control at 140 g/ha [2, 12]	further results
COC(=O)c1nc(-c2ccc(Br)c(F)c2F)cc(N)c1Cl [Compound 114, methyl 4-amino-6-(4-bromo-2,3-difluorophenyl)-3-chloropicolinate]	95 to 100%	95 to 100%	95 to 100%	95 to 100%	85 to 94%	95 to 100%	95 to 100%	95 to 100%	95 to 100%	95 to 100%	95 to 100%	95 to 100%	95 to 100%	95 to 100%	95 to 100%	95 to 100%	60 to 74%	60 to 74%	95 to 100%	95 to 100%	pest or weed control at 70 g/ha [2, 13]: 0 to 29%; pest or weed control at 140 g/ha [2, 13]: 0 to 29%; pest or weed control at 70 g/ha [2, 14]: 60 to 74%; pest or weed control at 140 g/ha [2, 14]: 75 to 84%; pest or weed control at 70 g/ha [2, 15]: 95 to 100%; pest or weed control at 140 g/ha [2, 15]: 95 to 100%; pest or weed control at 70 g/ha [2, 16]: 30 to 44%; pest or weed control at 140 g/ha [2, 16]: 45 to 59%; pest or weed control at 70 g/ha [2, 17]: 85 to 94%; pest or weed control at 140 g/ha [2, 17]: 85 to 94%
COC(=O)c1nc(-c2ccccc2F)c(F)c(N)c1Cl [Compound 206]	95 to 100%	95 to 100%	95 to 100%	95 to 100%	75 to 84%	85 to 94%	85 to 94%	85 to 94%	95 to 100%	95 to 100%	60 to 74%	85 to 94%	45 to 59%	60 to 74%	0 to 29%	0 to 29%	0 to 29%	0 to 29%	0 to 29%	0 to 29%	pest or weed control at 70 g/ha [2, 13]: 0 to 29%; pest or weed control at 140 g/ha [2, 13]: 0 to 29%; pest or weed control at 70 g/ha [2, 14]: 0 to 29%; pest or weed control at 140 g/ha [2, 14]: 0 to 29%; pest or weed control at 70 g/ha [2, 15]: 0 to 29%; pest or weed control at 140 g/ha [2, 15]: 0 to 29%; pest or weed control at 70 g/ha [2, 16]: 0 to 29%; pest or weed control at 140 g/ha [2, 16]: 0 to 29%; pest or weed control at 70 g/ha [2, 17]: 0 to 29%; pest or weed control at 140 g/ha [2, 17]: 0 to 29%
